From patent publication US20230011536A1, “MESENCHYMAL STEM CELL DERIVED EXTRACELLULAR VESICLES LOADED WITH AT LEAST ONE PHOTOSENSITIZER AND USES THEREOF FOR THE TREATMENT OF PERITONEAL CARCINOMATOSIS” (priority 2019, published 2023)

Assays:
[1] = system: colorectal peritoneal carcinomatosis (CT26); experiment: Early effectiveness of PDT in mouse model of colorectal peritoneal carcinomatosis (histology, TUNEL, immunostaining 48 h after illumination); assay type: in vivo
Protocol: (§1) After 24 h, animals from both groups were anesthetized with isoflurane, a midline laparotomy was performed to allow invasive laser irradiation, and were then irradiated using a 650 nm laser at a fluence of 10 J/cm^2 (100 mW/cm^2 for 100 s). Two irradiations spots were successively realized to allow an illumination of the entire cavity and drops of saline were used to keep the tissue moist. A heating device was used to keep body temperature stable throughout the treatment until the animal was woken up. The peritoneum and the skin were separately sutured immediately after irradiation.
(§2) Treatment injection was made 12 days after IP inoculation of CT26, followed by invasive illumination 24 hours after. Six groups were performed for each experimentation: (i) no treatment, (ii) laser, (iii) free mTHPC, (iv) EVs-mTHPC, (v) free mTHPC+laser, (vi) EVs-mTHPC+laser.
Early effectiveness was evaluated 48 hours after illumination to compare: tumoral necrosis, apoptosis, macrophages invasion, lymphocyte recruitment, vascular damage and proliferative index result according to treatment. Long-term effectiveness consisted on a survival analysis function of the treatment.
For immunohistochemical detection of the chosen markers for tumor tissue, sections were deparaffined and subject to antigen retrieval methods validated for each of the primary antibodies.
Antibody expression for each analysis was evaluated by the mean number of positive cells in 3 randomly chosen areas (×40 magnification) for 10-15 nodes by treatment. Quantitative analysis of immunostaining preparation was performed using the color segmentation ImageJ plugin developed by the Biomedical Imaging Group at the EPFL, Switzerland.
TUNEL assay: Cell apoptosis in tumour was detected by a FragEL DNA fragmentation (TUNEL) detection kit (Sigma, Roche, ref 11684795910). In brief the cryostat section were permeabilized with 0.1% Triton and 0.1% (citrate de sodium) in 10×PBS. The slides were then labeled with a TdT reaction mixture for 60 min and were mounted with a mounting solution containing 4′, 6-diamidino-2-phenylindole (DAPI). The apoptotic cells (green) and cell nucleus (blue) was examined using a fluorescence microscopy. The percentage of apoptotic cells was assessed in 2 randomly fields at 40× magnification. The apoptotic index was calculated with image J.
For image-based quantitative analysis of blood vessels, immunofluorescence detection of CD31 was made after one hour incubation with antiCD31 antibody (BD 553370,1/50) and 45 min incubation with second antibody (Alexa Fluor® 488, ThermoFisher, A11006, dilution 1/200)

[2] = mTHPC biodistribution after intraperitoneal injection, colorectal peritoneal carcinomatosis model (CT26); assay type: in vivo, mouse; conditions: for mTHPC level in tumor tissue: 0.5 mg/kg mTHPC, mean±SEM
Protocol: All animal experiments were performed in agreement with institutional animal use and care after approval by the local Ethics Committee (registration number for the carcinomatosis model experiment: APAFIS-8617). Six-week-old female BALB/c (provided by Charles River, Arbresle, France and weighing 18 g) and C57BL/6 mice were provided with food and water ad libidum, for colon and ovarian model respectively. The animals were allowed to acclimate to the facility for at least one week before being used for experiments. Colorectal model was induced with an intraperitoneal injection of 5·10^4 CT26 cells resuspended in a volume of 200 μL of physiological saline per inoculum. […] Between the days of IP injection and sacrifice, the wellbeing of the mice was checked twice a week through the search of any sign of pain, dehydration, changing in behavior or loss of weight.
Briefly, tumor-bearing animals (with colorectal carcinomatosis) were injected at 0.5 mg/kg mTHPC intraperitoneally. Either at 4 h, 15 h, 24 h or 48 h mice were sacrificed to determine mTHPC accumulation in different organs: tumors, liver, spleen, kidney, intestine, peritoneum, skin and lung. First, organs were weighed and grinded in PBS (1 mL per 10 mg of organ). The amount of 0.8 mL of MeOH per 10 mg of organ was added to the solution and vortexed; then, 0.8 mL of chloroform was added. The solution was centrifuged at 1400 rpm for 10 minutes to allow the separation of the aqueous and chloroform phases. The bottom layer consisting of the chloroform and the solubilized mTHPC was transferred for spectroscopy measurements. Fluorescence emission spectra were obtained by a fluorescence spectrophotometer using 415 nm excitation wavelength.

[3] = system: colorectal peritoneal carcinomatosis (CT26); experiment: Survival analysis after PDT in colorectal peritoneal carcinomatosis model; assay type: in vivo, mouse
Protocol: as §1, §2
Another 10 or 11 mice were selected from each group to evaluate the overall survival until 30 days. The end point was defined as mice death or the cachexia with the loss of 20% of the total weight that required the killing of the animal (as mentioned in the registration).

## Oc1cccc(-c2c3nc(c(-c4cccc(O)c4)c4ccc([nH]4)c(-c4cccc(O)c4)c4nc(c(-c5cccc(O)c5)c5ccc2[nH]5)CC4)C=C3)c1 [mTHPC, 5,10,15,20-Tetrakis(3-hydroxyphenyl)chlorin]
[1]; +laser
  CD8 detection in tumor: 1.88%±0.2
  CD31 expression (fluorescence signal): 0.55·10^7±1.0·10^6
  TUNEL mean fluorescence per mm^2 of tumor (apoptosis): 2.17±0.2
  anti CD3 labeling in tumor (T-lymphocyte infiltration): 2.51%±0.3
  macrophage intra-tumor invasion (anti F4/80): 41.45%±2.2
  mean Ki67-index: 26.2%±4.5
[1]; photoactivated (+laser)
  proliferation index reduced by a factor of: 2
[1]; without laser
  CD8 detection in tumor: 0.44%±0.07
  CD31 expression (fluorescence signal): 1.06·10^7±1.4·10^6
  TUNEL mean fluorescence per mm^2 of tumor (apoptosis): 0.86±0.4
  anti CD3 labeling in tumor (T-lymphocyte infiltration): 0.33%±0.07
  macrophage intra-tumor invasion (anti F4/80): 13.19%±1.4
  mean Ki67-index: 45.52±3.4%
[2]; 4 h after IP injection
  mTHPC level in tumor tissue: 0.10±0.01 ng/mg tissue
[2]; 15 h after IP injection
  mTHPC level in tumor tissue: 0.15±0.04 ng/mg tissue
[2]; 24 h after IP injection
  mTHPC level in tumor tissue: 0.16±0.05 ng/mg tissue
[2]; 48 h after IP injection
  mTHPC level in tumor tissue: 0.10±0.00 ng/mg tissue
[2]; average over all time points
  tumor-to-organ ratio, total average: 2.5
[3]; +laser, […]
  dead mice 4 days after laser illumination (lethal toxicity): 91%
[3]; non-vectorized PDT group
  histological analysis after PDT (liver, kidney): hepatic and kidney necrosis
